Each block holds one compound with its values, some of them ahead of it. Residues, ends and D or L forms follow the SMILES beside them.
How the values were obtained:
[1] = Sweetening potency: taste comparison of aqueous solutions with sucrose control solution (2%, 5% or 10%) by a group of eight experienced people; assay type: in vivo
Excerpt: The sweetening potency of the compounds described in the examples has been evaluated by a group of eight experienced people. For this, the compound, in aqueous solution at varying concentrations, is compared, with respect to taste, to a control solution of sucrose of concentration 2%, 5%, or 10%. The sweetening potency of the test compound compared with sucrose then corresponds to the weight ratio between the compound and sucrose for equal sweetening intensity, i.e. when the sweet tastes of the solution of the test compound and the control solution of sucrose are considered by a majority of people to have the same sweetening intensity.

[2] = Accelerated ageing in acidic medium (phosphate buffer pH 3, 70° C.), HPLC of product remaining; assay type: physicochemical; conditions: aqueous solution, read-out: half-life (time corresponding to 50% degradation) (converted)
Protocol: (§1) The stability of the compounds of the invention and aspartame was measured by determining, using high performance liquid chromatography (HPLC), the amount of product remaining after an accelerated ageing in acidic medium (phosphate buffer at pH 3) or in neutral medium (phosphate buffer at pH 7) and at the temperature of 70° C. The stability of the compound thus tested is evaluated by its half-life (time corresponding to 50% degradation).
Given in the annexed FIG. 1 is a comparative diagram of the stability curves of aspartame (curve 1) and of the N--(3,3-dimethylbutyl)-L-aspartyl-D-α-aminobutyric acid N--(S)-1-phenyl-1-propanamide of the present invention (curve 2) obtained during an accelerated ageing by heating their solutions in acidic medium at pH 3 (phosphate buffer) at 70° C.

[3] = Accelerated ageing in neutral medium (phosphate buffer pH 7, 70° C.), HPLC of product remaining; assay type: physicochemical; conditions: for half-life: phosphate buffer, read-out: half-life (time corresponding to 50% degradation) (converted)
Protocol: as §1
Given in the annexed FIG. 2 is a comparative diagram of the stability curves of aspartame (curve 1) and of the N-(3,3-dimethylbutyl)-L-aspartyl-D-α-aminobutyric acid N--(S)-1-phenyl-1-propanamide of the invention (curve 2) obtained during an accelerated ageing by heating their solutions in neutral media of pH 7 at 70° C.

[4] = Sweetening comparison with aspartame (equivalent sweetness of solutions / soft drink); assay type: in vivo; conditions: for concentration of aqueous solution of equivalent sweetening potency: 20 mg/L compound equivalent to 550 mg/L aspartame; for quantity of sweetening agent in one liter of soft drink for replacement: identical organoleptic qualities
Protocol: From the fact of their high sweetening potency, another advantage of the compounds of the invention compared to aspartame is to allow, in their application to food products, the use of very low quantities of active agent. It is therefore for example that it is possible to replace, in one liter of soft drink, 550 mg of aspartame by about 20 mg of the N-(3,3-dimethylbutyl)-L-aspartyl-D-α-aminobutyric acid N--(S)-1-phenyl-1-propanamide of the invention, and to therefore reduce by about 27 times the quantities of sweetening agent consumed, always in maintaining the identical organoleptic qualities.

[5] = cited from earlier work
[6] = with respect to a 2% sucrose solution

SMILES: CC[C@H](NC(=O)[C@H](NC(=O)[C@H](CC(=O)O)NCCC(C)(C)C)C(C)C)c1ccccc1 [N-(3,3-dimethylbutyl)-L-aspartyl-D-valine N--(S)-1-phenyl-1-propanamide]
- Sweetening potency [1, 6]: about 3,000 times that of sucrose on a weight basis
- Sweetening potency ([1]; with respect to a 2% sucrose solution, listed as Y = (CH3)2 CH, R" = (S) CH(C2 H5) C6 H5): 3,000 times that of sucrose on a wei

- half-life [2]: ~24 h
- stability in neutral solution ([3]; neutral solution, pH about 7): very little stable
- half-life ([3]; pH 7, 70° C.): 0.167 h
SMILES: COC(=O)[C@H](Cc1ccccc1)NC(=O)[C@@H](N)CC(=O)O [aspartame, L-aspartyl-L-phenylalanine methyl ester, reference compound] (HELM PEPTIDE1{D.F.[CO[*:1]]}$$$$V2.0)
- concentration of aqueous solution of equivalent sweetening potency [4]: 550 µg/mL
- quantity of sweetening agent in one liter of soft drink for replacement [4]: 550 mg
- sweetening potency (prior art) ([5]; aspartame, background, sucrose concentration not stated): 120 to 180 times that of sucrose on a weight basis

SMILES: COC[C@H](NC(=O)[C@H](NC(=O)[C@H](CC(=O)O)NCCC(C)(C)C)C(C)C)c1ccccc1 [N-(3,3-dimethylbutyl)-L-aspartyl-D-valine N--(S)-1-phenyl-2-methoxy-1-ethanamide]
- Sweetening potency [1, 6]: about 4,000 times that of sucrose on a weight basis
- Sweetening potency ([1]; with respect to a 2% sucrose solution, listed as Y = (CH3)2 CH, R" = (R) CH(CH2 OCH3)C6 H5): 4,000 times that of sucrose on a wei

- half-life [2]: ~72 h
- stability compared with aspartame ([3]; pH 7, 70° C., ratio to aspartame): about 1,700 times
- half-life ([3]; pH 7, 70° C.): ~288 h
SMILES: CC[C@H](NC(=O)[C@@H](CC)NC(=O)[C@H](CC(=O)O)NCCC(C)(C)C)c1ccccc1 [N-(3,3-dimethylbutyl)-L-aspartyl-D-α-aminobutyric acid N--(S)-1-phenyl-1-propanamide]
- Sweetening potency ([1]; by comparison with a 5% solution of sucrose): ~6,000 times that of sucrose on a wei
- Sweetening potency ([1]; by comparison with a 10% solution of sucrose): ~5,000 times that of sucrose on a wei
- Sweetening potency ([1]; with respect to a 2% sucrose solution, listed as Y = C2 H5, R" = (S) CH(C2 H5) C6 H5): 8,000 times that of sucrose on a wei
- concentration of aqueous solution of equivalent sweetening potency [4]: 20 µg/mL
- sweetening potency compared with aspartame ([4]; 20 mg/L of compound vs 550 mg/L of aspartame, aqueous solution): about 27 times
- quantity of sweetening agent in one liter of soft drink for replacement [4]: about 20 mg
- reduction of quantity of sweetening agent consumed vs aspartame ([4]; soft drink, vs aspartame): about 27 times

SMILES: CC[C@@H](NC(=O)[C@H](CC(=O)O)NCCC(C)(C)C)C(=O)N[C@@H](C)c1ccccc1 [Y = C2 H5, R" = (S) CH(CH3)C6 H5]
- Sweetening potency [1, 6]: 2,000 times that of sucrose on a wei

SMILES: C[C@@H](NC(=O)[C@H](CC(=O)O)NCCC(C)(C)C)C(=O)NC(C1CC1)C1CC1 [N-(3,3-dimethylbutyl)-L-aspartyl-N-(dicyclopropylcarbinyl)-D-alaninamide]
- sweetening potency (prior art, FR 92 13615) [5, 6]: 2,500 times that of sucrose on a weight basis

SMILES: CC[C@@H](NC(=O)[C@H](CC(=O)O)NCCC(C)(C)C)C(=O)N[C@@H](COC)c1ccccc1 [N-(3,3-dimethylbutyl)-L-aspartyl-D-α-aminobutyric acid N--(S)-1-phenyl-2-methoxy-1-ethanamide]
- Sweetening potency [1, 6]: about 4,000 times that of sucrose on a weight basis
- Sweetening potency ([1]; with respect to a 2% sucrose solution, listed as Y = C2 H5, R" = (R) CH(CH2 OCH3)C6 H5): 4,000 times that of sucrose on a wei

— patent US5997933A, “N-(3,3-dimethylbutyl)-L-aspartyl-D-α-aminoalkanoic acid N-(S)-1-phenyl-1-alkanamide useful as a sweetening agent” (priority 1996, dated 1999)
